{"source": "patent US10752881B2", "about": "“Trans-differentiation of differentiation cells” (Helmholtz Zentrum München-Deutsches Forschungszentrum für …, priority 2014, dated 2020)", "key": {"[1]": {"system": "Mouse embryonic fibroblasts (MEFs)", "assay": "Fibroblast-to-neuron reprogramming of MEFs with retroviral vectors, β-III-tubulin immunostaining", "type": "cell-based"}, "[2]": {"system": "postnatal mouse astrocytes", "conditions": "co-transfected with Ascl1-RFP, 4 days", "method": "(C) Histogram of astroglial cultures transfected with Ascl1-RFP-encoding plasmid alone or in combination with WT-Bcl-2, EE-Bcl-2 or A-Bcl-2 at 4 days post-transfection (DPT). The number of transfected cells (RFP+) at final time point (4 DPT) was normalized to the initial number of transfected cells (1 DPT) to calculate the % of survival. The % of neuronal conversion was analysed by β-III-tubulin immunostaining and normalized to total number of RFP+ cells at the end of the experiment. Error bars indicate ±SD. *p<0.05, **p<0.01; ANOVA Tukeys post-test.\nA, Quantifications at 5 DPT (days post-transfection) showing the effect of the inhibitor of ferroptosis, α-toc and the inhibitor of apoptosis, ZVAD in survival/efficiency of conversion of astroglial cells transfected with Ascl1-RFP.\nC, Percentage of neurons in astroglial cells transfected with Ascl1-encoding plasmid alone or in combination with Bcl-2 and/or Vdr at 5 DPT after 4 days of treatment with calcitriol or untreated.\nAfter removal of the meninges, grey matter tissue was dissected from P5-P7 cerebral cortex of C57BL/6J mice and dissociated mechanically. Subsequently, cells were centrifuged for 5 min at 1000 rpm, re-suspended, and plated in medium consisting of DMEM/F12 (Gibco), 3.5 mM glucose (Sigma), 10% fetal calf serum (Gibco), 5% horse serum (Gibco), penicillin/streptomycin (Gibco) and supplemented with B27 (Gibco), 10 ng/mL epidermal growth factor (EGF, Roche) and 10 ng/mL fibroblast growth factor 2 (FGF2, Roche). After one week expansion cells were harvested using trypsin/EDTA (Gibco) and plated onto poly-D-lysine (Sigma-Aldrich) coated glass coverslips in 24-well plates (BD Biosciences) or directly onto the plastic for time lapse experiments at a density of 60,000 cells per well in the same medium. After 24 hours cells were either transfected with plasmid or infected with retroviral vectors and after further 24 hours medium was changed to differentiation medium composed of DMEM/F12 high glucose with GlutaMAX, penicillin/streptomycin and B27 supplement (Gibco) to allow neuronal differentiation.\nFor transfection DNA-liposome complexes were prepared in Optimem medium (Invitrogen) using the retroviral plasmids described below and Lipofectamine 2000 (Invitrogen). Astrocyte cultures were exposed to DNA-liposome complexes at a concentration of 0.5 μg DNA per 400 μl of Optimem medium for 4 hours and cultured after that in the differentiation medium as above.\nCells were fixed in 4% paraformaldehyde (PFA) in phosphate-buffered saline (PBS) for 10 min at room temperature (RT), washed in PBS and pretreated in 0.5% Triton X-100 in PBS for 30 min, followed by incubation in 2% BSA and 0.5% Triton X-100 in PBS for 30 min. Primary antibodies were incubated on specimen overnight at 4° C. in 2% BSA, 0.5% Triton X-100 in PBS."}, "[3]": {"system": "astroglial cells transfected with Ascl1-RFP", "assay": "Lipid peroxidation (C11-Bodipy staining) and glutathione detection during reprogramming", "type": "cell-based, mouse", "conditions": "co-transfected with Ascl1, 2 DPT", "text": "C, Micrographs show oxidized lipids (C11-Bodipy staining) at 2 DPT in astroglial cells transfected with Ascl1-REP alone or in combination with EE-Bcl-2 or A-Bcl-2. Note higher levels of oxidation in cells transfected with only Ascl1 or Ascl1+EE-BCl-2 (black arrows) compare to cells co-transfected with Ascl1+A-Bcl-2 (black arrowheads). High magnification pictures show partial co-localization of C11-Bodipy staining and DAPI in Ascl1-expressing cells contrarily to cells co-transfected with Ascl1+EE-Bcl-2 (see arrows).\nD, Pictures show glutathione (GSH) detection of same cells shown in C. Cells with normal or increased levels of GSH are depicted by arrowheads and arrows respectively.\nThese observations open the question of why EE-Bcl-2 has no effect in neuronal reprogramming while A-Bcl-2 has.\nFor the detection of oxidative stress we used CellROX green Reagent (Life technologies, C10444) according with the described protocol and fluorescence was detected by microscope (see below)."}, "MEFs": {"system": "MEFs", "conditions": "MyoD + A-Bcl-2 vs MyoD/GFP"}}, "data": [{"substance": "A-Bcl-2: S70A recombinant Bcl-2 with reduced ability to interact with Bax, mimics the un-phosphorylated form", "values": [{"measurement": "neuronal conversion in MEFs (β-III-tubulin)", "setting": "[1]; Ascl1-based retroviral vectors, 14 days after infection", "result": "> 75", "unit": "%"}, {"measurement": "increase of proportion of neurons induced from MEFs", "setting": "[1]; Neurog2 + A-Bcl-2 vs Neurog2/RFP", "result": 6, "unit": "×"}, {"measurement": "proportion of neurons induced from MEFs, of all infected cells", "setting": "[1]; Neurog2-based retroviral vectors, 15 days after infection", "result": 63, "unit": "%"}, {"measurement": "effect on cell survival during reprogramming", "setting": "[2]", "result": "decreased survival compared to those transfected with WT-Bcl-2- or EE-Bcl-2-encoding plasmids"}, {"measurement": "effect on proportion of neuronal conversion mediated by Ascl1", "setting": "[2]; β-III-tubulin", "result": "increased proportion of neurons induced from the transfected astrocytes"}, {"measurement": "effect on lipid peroxidation / oxidative stress (C11-Bodipy)", "setting": "[3]", "result": "very efficiently reducing oxidative stress"}, {"measurement": "speed of conversion into skeletal muscle cells", "setting": "MEFs", "result": "converted much faster into skeletal muscle cells"}]}]}
